Experimental findings from patent US20260283205A1, “ACYLATED DIHYDROCHALCONES, METHODS OF PRODUCTION AND USES THEREOF” (SYMRISE AG, priority 2023, published 2026) are described below.

Assay type in all cases: in vivo
For assay [1], the system named is panel of five flavorists (n=5). The assay can be described thus: Taste descriptors (scale 0-9) of sugar base with sweet tasting / sweet taste modulating substances, without (A) and with (B) compound 41 or 57. The following applies: for Mouthfeel (0-9), sample A / Lingering sweetness (0-9), sample A / Onset sweetness (0-9), sample A / Overall sweetness (0-9), sample A / Lingering sweetness (0-9), Δ (B-A) / Mouthfeel (0-9), Δ (B-A) / Onset sweetness (0-9), Δ (B-A) / Overall sweetness (0-9), Δ (B-A): scale 0-9; for Mouthfeel (0-9), sample A / Lingering sweetness (0-9), sample A / Onset sweetness (0-9), sample A / Overall sweetness (0-9), sample A: n=5; for Onset sweetness (0-9), A / Overall sweetness (0-9), A: samples (A): sugar base (5% sucrose+0.1% citric acid) + PH 25, HT 12, HC 50, RS 75, LHG 20, PD 3 or SG 60 mg/kg, without compound 41; for Onset sweetness (0-9), A: base alone 2.0; for Overall sweetness (0-9), A: base alone 3.0. Here is the method: A sugar base (5% sucrose+0.1% citric acid) was provided. Further, the sweet tasting substances RS (20% Rubusoside), SG (90% steviol oligoglucosides), HC (8% Hesperetin dihydrochalcone), LHG (52% mogroside V) and the sweet taste modulating substances PD (>95% Phyllodulcin), HT (>85% Hesperetin) and PH (>98% Phloretin) were provided and added to the sugar base to produce different samples (A).
A dose of 2 mg/kg compound 41 or, respectively, 1.2 mg/kg compound 57 was added to the samples to obtain samples (B).
Different taste descriptors were compared between the respective samples (A) and (B) by a panel of five flavorists (n=5) using a scale of 0-9.
The panelists were asked to neutralize with tap water between each sample and the intensity of the descriptors of each sample were defined before tasting the next sample. The tasting of each RS, SG, HC, LHG, PD, HT or PH (samples (A)) were followed by the samples with added RS, SG, HC, LHG, PD, HT or PH+compound (41 or 57) (samples (B)) with each being compared to the intensities of the base.

Assay [2] has as its system trained sensory panel (n=20). The assay is described as follows: Paired comparison tests (Duo test): sweetness increase of 5% sucrose solution in water. Set-up: unit not given here. The following applies: dosage HG 50, compound 9 10, 41 5, 57 3, 73 5, 89 5 mg/kg. How it is done: The sensory impact of the compounds 9, 41, 57, 73 and 89 on a 5% sucrose solution in water was analysed by a trained sensory panel (n=20) using a series of paired comparison tests (Duo test). The samples were coded and randomized.

Assay [3] has as its system panel of 20 trained panellists. The assay can be described thus: Intrinsic sweetness: concentration in water equally sweet as a 1.5% sucrose solution. The following applies: no significant difference (p<0.05) to 1.5% sucrose. How it is done: Compounds 9, 41, 57, 73 and 89 were provided as described in Example 3 and purified to >95% with preparative chromatography. The obtained compounds were used for sensory evaluations.
The intrinsic sweetness of the compounds was determined by a panel of 20 trained panellists. The intrinsic sweetness of a compound is determined by evaluating the sweetness of the compound at different concentrations in water against a 1.5% sucrose solution.
A mixture of butanoylated HG and a mixture of pentanoylated HG were provided as described in Example 3.
The intrinsic sweetness was determined as described in Example 4. As shown in the table, the concentrations of the acylated compounds, which represent equal sweetness as the 1.5% sucrose solution, are approximately ⅕ to ⅛ of the required concentration of HG (non-acylated). Thus, acylation of HG provides a strong increase of the intrinsic sweetness.

The next assay relates to trained flavourist panel. The assay can be described thus: Sensory profile (impact, intensity, mouthfeel, lingering sweetness) of 5% sucrose solution with added compound. The following applies: 5% sucrose solution (A1) + HG 50 ppm, compound 9 15 ppm, 41 5 ppm, 57 3 ppm, 73 5 ppm, 89 5 ppm; for Lingering sweetness: sucrose alone scores 1; for Impact: sucrose alone scores 3; for Intensity / Mouthfeel: sucrose alone scores 4. Here is the method: A 5% sucrose solution was prepared. Compounds 9, 41, 57, 73 and 89 were provided as described in Example 3 and purified to >95% with preparative chromatography.
The sensory profile of the sucrose solution (control) and the sucrose solution including HG (control), compounds 9, 41, 57, 73 or 89 was determined by a trained flavourist panel comparing the impact, intensity and mouthfeel.

The test system of assay [4] is panel of five flavorists (n=5). The assay can be described thus: Sweet taste modulation in lemonade bases with reduced sugar content, descriptor intensities 0-9. As to conditions: 5 mg/kg compound 41 or 3 mg/kg compound 57, intensity 0-9. Here is the method:
A dose of 5 mg/kg compound 41 or, respectively, 3 mg/kg compound 57 were applied to different sugar reduced lemonade bases to restore the overall and sweet taste of the respective matrix with reduced sugar content. Different descriptors were determined by a panel of five flavorists (n=5) and given as intensities from 0-9.
The lemonade bases were “full sugar”, “sugar reduced”, “Stevia Hybride”, “Sugar free base Suc/Ace K” and “Sugar free base Asp/Ace K” with the following recipes: […]

[5] abbreviates: compound 41 series, sample A: sugar base (5% sucrose+0.1% citric acid) + sample substance alone at the listed dose (PH 25, HT 12, HC 50, RS 75, LHG 20, PD 3, SG 60 mg/kg).
[6] abbreviates: compound 41 series, sample A: sugar base + sample substance alone at the listed dose.
The mark [7] stands for this setting: compound 57 series, sample A: sugar base + sample substance alone at the listed dose.
Where [8] appears, read: difference between sample B (+1.2 mg/kg compound 57) and sample A.
Setting [9] is: difference between sample B (+2 mg/kg compound 41) and sample A.
Where [10] appears, read: lemonade base "Sugar free base Asp/Ace K".
Setting [11] is: lemonade base "Sugar free base Suc/Ace K".

Consider `O=C(CCc1ccc(O)cc1)c1c(O)cc(O)cc1O` [PH, Phloretin], for which, in assay [1] (setting [5]), the “Mouthfeel (0-9), sample A” value is 4.0. Also, in assay [1] (setting [6]), the “Lingering sweetness (0-9), sample A” value turned out to be 0.0. Further, in assay [1] (setting [7]), the “Lingering sweetness (0-9), sample A” value stood at 0.0; the “Mouthfeel (0-9), sample A” value was 3.5; the “Onset sweetness (0-9), sample A” value is given as 2.5; the “Overall sweetness (0-9), sample A” value was determined as 3.5. Also, in assay [1] (setting [8]), the “Lingering sweetness (0-9), Δ (B-A)” value was 1.5; the “Mouthfeel (0-9), Δ (B-A)” value is given as 0.5; the “Onset sweetness (0-9), Δ (B-A)” value is 0.5; the “Overall sweetness (0-9), Δ (B-A)” value is on record as 1.0. Besides, in assay [1] (setting [9]), the “Lingering sweetness (0-9), Δ (B-A)” value is recorded as 1.0 and the “Mouthfeel (0-9), Δ (B-A)” value is given as 0.5. In addition, in assay [1], the “Onset sweetness (0-9), A” value is 3.0 and the “Overall sweetness (0-9), A” value was determined as 4.0.

For the compound `COc1ccc([C@@H]2CC(=O)c3c(O)cc(O)cc3O2)cc1O` [HT, Hesperetin], the “Mouthfeel (0-9), sample A” value in assay [1] (setting [5]) is 3.5. Also, the “Lingering sweetness (0-9), sample A” value in assay [1] (setting [6]) is given as 0.0. In assay [1] (setting [7]), the “Lingering sweetness (0-9), sample A” value turned out to be 0.0; the “Mouthfeel (0-9), sample A” value was 3.5; the “Onset sweetness (0-9), sample A” value was determined as 2.5; the “Overall sweetness (0-9), sample A” value turned out to be 3.5. Further, in assay [1] (setting [8]), the “Lingering sweetness (0-9), Δ (B-A)” value amounted to 2.0; the “Mouthfeel (0-9), Δ (B-A)” value is recorded as 0.5; the “Onset sweetness (0-9), Δ (B-A)” value is 1.0; the “Overall sweetness (0-9), Δ (B-A)” value stood at 1.5. Also, in assay [1] (setting [9]), the “Lingering sweetness (0-9), Δ (B-A)” value worked out at 1.0 and the “Mouthfeel (0-9), Δ (B-A)” value is recorded as 0.5. For the same compound, in assay [1], the “Onset sweetness (0-9), A” value turned out to be 2.5 and the “Overall sweetness (0-9), A” value was determined as 3.5.

For `CCCCCC(=O)OC[C@H]1O[C@@H](Oc2cc(O)c(C(=O)CCc3ccc(OC)c(O)c3)c(O)c2)[C@H](O)[C@@H](O)[C@@H]1O` [Compound 73, 6″-O-Hexanoyl-HG], in assay [2], the Increase of sweetness stood at 23.1. In assay [3], the “Concentration of equal sweetness as 1.5% sucrose control” value (from here on “Concentration … as 1.5% sucrose control”) stood at 5 mg/kg. In the assay on trained flavourist panel, the Lingering sweetness was 3-4, the Impact is reported as 4-5, the Intensity is reported as 6-7 and the Mouthfeel is given as 5.

Consider `CCCCCCC(=O)OC[C@H]1O[C@@H](Oc2cc(O)c(C(=O)CCc3ccc(OC)c(O)c3)c(O)c2)[C@H](O)[C@@H](O)[C@@H]1O` [Compound 89, 6″-O-Heptanoyl-HG], for which the Increase of sweetness in assay [2] is on record as 27.7. Moreover, the “Concentration … as 1.5% sucrose control” value in assay [3] amounted to 5 mg/kg. In the assay on trained flavourist panel, the Lingering sweetness is reported as 3-4, the Impact is 4-5, the Intensity is listed as 6-7 and the Mouthfeel was determined as 5.

In the case of `CCCC(=O)OC[C@H]1O[C@@H](Oc2cc(O)c(C(=O)CCc3ccc(OC)c(O)c3)c(O)c2)[C@H](O)[C@@H](O)[C@@H]1O` [Compound 41, 6″-O-Butanoyl-HG], the Increase of sweetness in assay [2] was 24.4. In assay [4] (lemonade base "Stevia Hybrid"), this compound had a Lingering sweetness of 1, a Mouthfeel of 4.5, an Onset of 4 and an Overall sweetness of 5.5. In assay [4] (setting [10]), this compound yielded a Lingering sweetness of 2.5, a Mouthfeel of 3.5, an Onset of 4 and an Overall sweetness of 5. In assay [4] (setting [11]), the Lingering sweetness was 3, the Mouthfeel was 2, the Onset is listed as 2.5 and the Overall sweetness turned out to be 4.5. For the same compound, in assay [4] (lemonade base "Sugar reduced"), the Lingering sweetness amounted to 0.5, the Mouthfeel was determined as 3.5, the Onset was found to be 4 and the Overall sweetness worked out at 4.5. Further, in assay [1] (setting [9]), the “Lingering sweetness (0-9), Δ (B-A)” value is 1.0 and the “Mouthfeel (0-9), Δ (B-A)” value is 1.0. Also, in assay [3], the “Concentration … as 1.5% sucrose control” value turned out to be 5 mg/kg. In the assay on trained flavourist panel, the Lingering sweetness is 2-3, the Impact is 4-5, the Intensity is recorded as 5-6 and the Mouthfeel amounted to 5.

With `CCCCC(=O)OC[C@H]1O[C@@H](Oc2cc(O)c(C(=O)CCc3ccc(OC)c(O)c3)c(O)c2)[C@H](O)[C@@H](O)[C@@H]1O` [Compound 57, 6″-O-Pentanoyl-HG], the Increase of sweetness in assay [2] is on record as 25.2. Further, in assay [4] (lemonade base "Stevia Hybrid"), the Lingering sweetness was 2.5, the Mouthfeel amounted to 5, the Onset is given as 4 and the Overall sweetness is reported as 6. For the same compound, in assay [4] (setting [10]), the Lingering sweetness is given as 3.5, the Mouthfeel amounted to 3.5, the Onset is listed as 3.5 and the Overall sweetness is 5. In addition, in assay [4] (setting [11]), the Lingering sweetness is listed as 4, the Mouthfeel was determined as 2.5, the Onset is on record as 3 and the Overall sweetness is on record as 5. Further, in assay [4] (lemonade base "Sugar reduced"), the Lingering sweetness is given as 2, the Mouthfeel is recorded as 4, the Onset is listed as 4 and the Overall sweetness was determined as 4.5. In addition, in assay [1] (setting [8]), the “Lingering sweetness (0-9), Δ (B-A)” value was found to be 1.0; the “Mouthfeel (0-9), Δ (B-A)” value is 0.5; the “Onset sweetness (0-9), Δ (B-A)” value is recorded as 0.5; the “Overall sweetness (0-9), Δ (B-A)” value is listed as 1.0. In addition, the “Concentration … as 1.5% sucrose control” value in assay [3] came out at 3 mg/kg. In addition, in the assay on trained flavourist panel, the Lingering sweetness is 3, the Impact was 4-5, the Intensity was 5-6 and the Mouthfeel is 5.

In the case of `COc1ccc([C@H]2Cc3cccc(O)c3C(=O)O2)cc1O` [PD, Phyllodulcin], the “Mouthfeel (0-9), sample A” value in assay [1] (setting [5]) was 4.0. In assay [1] (setting [6]), the “Lingering sweetness (0-9), sample A” value is recorded as 1.0. Besides, in assay [1] (setting [7]), the “Lingering sweetness (0-9), sample A” value is recorded as 1.0; the “Mouthfeel (0-9), sample A” value is recorded as 3.5; the “Onset sweetness (0-9), sample A” value came out at 2.5; the “Overall sweetness (0-9), sample A” value is reported as 4.0. Also, in assay [1] (setting [8]), the “Lingering sweetness (0-9), Δ (B-A)” value is listed as 0.5; the “Mouthfeel (0-9), Δ (B-A)” value came to 1.0; the “Onset sweetness (0-9), Δ (B-A)” value is 0.5; the “Overall sweetness (0-9), Δ (B-A)” value was 1.0. In assay [1] (setting [9]), the “Lingering sweetness (0-9), Δ (B-A)” value amounted to 1.0 and the “Mouthfeel (0-9), Δ (B-A)” value is recorded as 0.5. For the same compound, in assay [1], the “Onset sweetness (0-9), A” value worked out at 2.5 and the “Overall sweetness (0-9), A” value is listed as 4.0.

In the case of `COc1ccc(CCC(=O)c2c(O)cc(O[C@@H]3O[C@H](COC(C)=O)[C@@H](O)[C@H](O)[C@H]3O)cc2O)cc1O` [Compound 9, 6″-O-Acetyl-HG], the Increase of sweetness in assay [2] was 33.1. Further, in assay [3], the “Concentration … as 1.5% sucrose control” value came out at 15 mg/kg. For the same compound, in the assay on trained flavourist panel, the Lingering sweetness is given as 2, the Impact is recorded as 3, the Intensity is on record as 4-5 and the Mouthfeel is reported as 4-5.
